Experimental data published in patent US20260001928A1 (CORTERIA PHARMACEUTICALS, priority 2022, published 2026).
*1 amine or outer side, *2 acyl side, *3 side chain or, on linkers, in order; H or OH if unused. Where a SMILES comes first, the peptide text is derived from it. Side-chain parts run from the residue outwards. [ ]: non-standard residue; d: D form. The star is where a group is joined. C16 diacid = O=C(O)CCCCCCCCCCCCCCC(=O)*; γGlu = O=C(O)[C@H](CCC(=O)[*:2])N[*:1]; αMeL = CC(C)C[C@](C)(N)C(=O)O; Ac6c = NC1(C(=O)O)CCCCC1; Ac5c = NC1(C(=O)O)CCCC1; Ac3c = NC1(C(=O)O)CC1

Assays:
human CRF2a receptor = molecular target: T1, human CRF2a receptor (Homo sapiens, UniProt Q13324); assay: Activity at human CRF2a receptor, cAMP functional assay in TeloHEAC cells; assay type: cell-based; settings: TeloHEAC cells stably expressing human CRF2a receptor, relative to urocortin 2 (100 nM = 100%)
T1 construct: expressed in transfected cells; host or cells: TeloHEAC cells
T1 sequence (Q13324 1-411): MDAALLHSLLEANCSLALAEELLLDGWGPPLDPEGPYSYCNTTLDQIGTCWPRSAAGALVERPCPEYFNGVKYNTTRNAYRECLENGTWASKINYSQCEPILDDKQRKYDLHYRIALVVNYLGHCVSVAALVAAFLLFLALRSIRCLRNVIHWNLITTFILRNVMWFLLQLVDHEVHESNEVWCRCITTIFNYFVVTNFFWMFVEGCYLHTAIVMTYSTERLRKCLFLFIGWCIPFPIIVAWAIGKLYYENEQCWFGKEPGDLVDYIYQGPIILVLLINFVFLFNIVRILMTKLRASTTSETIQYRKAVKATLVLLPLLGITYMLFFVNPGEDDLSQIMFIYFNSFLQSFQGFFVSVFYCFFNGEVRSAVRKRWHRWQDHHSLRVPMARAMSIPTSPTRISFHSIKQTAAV
Summary of the method: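 TeloHEAC cells stably expressing human CRF2a (10000 cells/well) were treated with 16-point 1:2 compound dilutions in HBSS/20 mM HEPES with IBMX for 30 min at 37° C. cAMP was read by HTRF (665/620 nm ratio). EC50 was the concentration giving 50% activation, with 100 nM urocortin 2 set as 100%.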

CFR1R receptor = molecular target: T2, CFR1R receptor (Homo sapiens, UniProt P34998); assay: Activity at anti-target CFR1R receptor, cAMP assay in CRF1R-overexpression CHO-K1 cells; assay type: cell-based; settings: 100% = Sauvagine at 100 nM; for EC50: cAMP
T2 construct: host or cells: CHO-K1 (clone 2)
T2 sequence (P34998 24-415): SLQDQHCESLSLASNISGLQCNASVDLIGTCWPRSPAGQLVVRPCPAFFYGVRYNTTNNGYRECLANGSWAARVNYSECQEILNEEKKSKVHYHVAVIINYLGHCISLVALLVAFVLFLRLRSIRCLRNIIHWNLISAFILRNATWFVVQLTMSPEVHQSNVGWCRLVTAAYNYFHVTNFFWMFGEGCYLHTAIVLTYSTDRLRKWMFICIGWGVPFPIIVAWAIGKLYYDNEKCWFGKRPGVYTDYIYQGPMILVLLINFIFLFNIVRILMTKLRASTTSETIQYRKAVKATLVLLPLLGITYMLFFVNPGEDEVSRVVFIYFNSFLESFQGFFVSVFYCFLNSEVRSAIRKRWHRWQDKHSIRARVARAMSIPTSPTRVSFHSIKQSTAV
Summary of the method: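 cAMP readout in CRF1R-overexpressing CHO-K1 cells (clone 2), run as for the TeloHAEC assay at 4000 cells/well final. Cells came from cryopreserved banks. Sauvagine at 100 nM defined 100% activation.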

EC50 (human CRF2a receptor) [pM]	Emax (% I) (CFR1R receptor)	EC50 (CFR1R receptor) [pM]	SMILES
810	9	> 250000	CC[C@H](C)[C@H](NC(C)=O)C(=O)N[C@H](C(=O)N[C@@H](CC(C)C)C(=O)N[C@@H](CO)C(=O)N[C@@H](CC(C)C)C(=O)N[C@@H](CC(=O)O)C(=O)N[C@@H](C(=O)N1CCC[C@H]1C(=O)N[C@H](C(=O)N[C@@H](CCCCN)C(=O)N[C@@H](CC(C)C)C(=O)N[C@@H](CCCCNC(=O)CC[C@H](NC(=O)CCCCCCCCCCCCCCC(=O)O)C(=O)O)C(=O)N[C@@H](CCCCN)C(=O)N[C@H](C(=O)N[C@@H](CC(C)C)C(=O)N[C@@H](CC(C)C)C(=O)N[C@@H](CCC(=O)O)C(=O)N[C@@H](CCC(N)=O)C(=O)N[C@@H](CCC(=O)O)C(=O)N[C@@H](CCCCN)C(=O)N[C@@H](CCC(N)=O)C(=O)N[C@@H](CCCCN)C(=O)N[C@@H](CCCCN)C(=O)N[C@@H](CCC(N)=O)C(=O)N[C@@H](CCCNC(=N)N)C(=O)N[C@@H](CCC(=O)O)C(=O)N[C@@H](CCC(N)=O)C(=O)N[C@@H](C)C(=O)N[C@@H](CCC(=O)O)C(=O)N[C@H](C(=O)N[C@@H](CC(N)=O)C(=O)NC1(C(=O)N[C@@H](CCC(N)=O)C(=O)N[C@H](C(=O)N[C@@H](CC(C)C)C(=O)N[C@@H](C)C(=O)N[C@@H](CCC(N)=O)C(=O)N[C@H](C(N)=O)C(C)C)[C@@H](C)CC)CCCCC1)[C@@H](C)O)[C@@H](C)CC)[C@@H](C)CC)C(C)C)C(C)C [compound 59] (Ac-IVLSLD[dV]PIKLK([γGlu-C16 diacid])KILLEQEKQKKQREQAETN[Ac6c]QILAQV-NH2)
340	5	> 250000	CC[C@H](C)[C@H](NC(C)=O)C(=O)N[C@H](C(=O)N[C@@H](CC(C)C)C(=O)N[C@@H](CO)C(=O)N[C@@H](CC(C)C)C(=O)N[C@@H](CC(=O)O)C(=O)N[C@@H](C(=O)N1CCC[C@H]1C(=O)N[C@H](C(=O)N[C@@H](CCCCN)C(=O)N[C@@H](CC(C)C)C(=O)N[C@@H](CCCCNC(=O)CC[C@H](NC(=O)CCCCCCCCCCCCCCC(=O)O)C(=O)O)C(=O)N[C@@H](CCCCN)C(=O)N[C@H](C(=O)N[C@@H](CC(C)C)C(=O)N[C@@H](CC(C)C)C(=O)N[C@@H](CCC(=O)O)C(=O)N[C@@H](CCC(N)=O)C(=O)N[C@@H](CCC(=O)O)C(=O)N[C@@H](CCCCN)C(=O)N[C@@H](CCC(N)=O)C(=O)N[C@@H](CCCCN)C(=O)N[C@@H](CCCCN)C(=O)N[C@@H](CCC(N)=O)C(=O)N[C@@H](CCCNC(=N)N)C(=O)N[C@@H](CCC(=O)O)C(=O)N[C@@H](CCC(N)=O)C(=O)N[C@@H](C)C(=O)N[C@@H](CCC(=O)O)C(=O)N[C@H](C(=O)N[C@@H](CC(N)=O)C(=O)NC1(C(=O)N[C@@H](CCC(N)=O)C(=O)N[C@H](C(=O)N[C@@H](CC(C)C)C(=O)N[C@@H](C)C(=O)N[C@@H](CCC(N)=O)C(=O)N[C@H](C(N)=O)C(C)C)[C@@H](C)CC)CCCC1)[C@@H](C)O)[C@@H](C)CC)[C@@H](C)CC)C(C)C)C(C)C [compound 60] (Ac-IVLSLD[dV]PIKLK([γGlu-C16 diacid])KILLEQEKQKKQREQAETN[Ac5c]QILAQV-NH2)
360	3	> 250000	CC[C@H](C)[C@H](NC(C)=O)C(=O)N[C@H](C(=O)N[C@@H](CC(C)C)C(=O)N[C@@H](CO)C(=O)N[C@@H](CC(C)C)C(=O)N[C@@H](CC(=O)O)C(=O)N[C@@H](C(=O)N1CCC[C@H]1C(=O)N[C@H](C(=O)N[C@@H](CCCCN)C(=O)N[C@@H](CC(C)C)C(=O)N[C@@H](CCCCNC(=O)CC[C@H](NC(=O)CCCCCCCCCCCCCCC(=O)O)C(=O)O)C(=O)N[C@@H](CCCCN)C(=O)N[C@H](C(=O)N[C@@H](CC(C)C)C(=O)N[C@@H](CC(C)C)C(=O)N[C@@H](CCC(=O)O)C(=O)N[C@@H](CCC(N)=O)C(=O)N[C@@H](CCC(=O)O)C(=O)N[C@@H](CCCCN)C(=O)N[C@@H](CCC(N)=O)C(=O)N[C@@H](CCCCN)C(=O)N[C@@H](CCCCN)C(=O)N[C@@H](CCC(N)=O)C(=O)N[C@@H](CCCNC(=N)N)C(=O)N[C@@H](CCC(=O)O)C(=O)N[C@@H](CCC(N)=O)C(=O)N[C@@H](C)C(=O)N[C@@H](CCC(=O)O)C(=O)N[C@H](C(=O)N[C@@H](CC(N)=O)C(=O)NC1(C(=O)N[C@@H](CCC(N)=O)C(=O)N[C@H](C(=O)N[C@@H](CC(C)C)C(=O)N[C@@H](C)C(=O)N[C@@H](CCC(N)=O)C(=O)N[C@H](C(N)=O)C(C)C)[C@@H](C)CC)CC1)[C@@H](C)O)[C@@H](C)CC)[C@@H](C)CC)C(C)C)C(C)C [compound 61] (Ac-IVLSLD[dV]PIKLK([γGlu-C16 diacid])KILLEQEKQKKQREQAETN[Ac3c]QILAQV-NH2)

The next lines start with the compound.

SMILES	EC50 (human CRF2a receptor) [pM]	Emax (% I) (CFR1R receptor)	EC50 (CFR1R receptor) [pM]
CC[C@H](C)[C@H](NC(C)=O)C(=O)N[C@H](C(=O)N[C@@H](CC(C)C)C(=O)N[C@@H](CO)C(=O)N[C@@H](CC(C)C)C(=O)N[C@@H](CC(=O)O)C(=O)N[C@@H](C(=O)N1CCC[C@H]1C(=O)N[C@H](C(=O)N[C@@H](CCCCN)C(=O)N[C@@](C)(CC(C)C)C(=O)N[C@@H](CCCCNC(=O)CC[C@H](NC(=O)CCCCCCCCCCCCCCC(=O)O)C(=O)O)C(=O)N[C@@H](CCCCN)C(=O)N[C@H](C(=O)N[C@@H](CC(C)C)C(=O)N[C@@H](CC(C)C)C(=O)N[C@@H](CCC(=O)O)C(=O)N[C@@H](CCC(N)=O)C(=O)N[C@@H](CCC(=O)O)C(=O)N[C@@H](CCCCN)C(=O)N[C@@H](CCC(N)=O)C(=O)N[C@@H](CCCCN)C(=O)N[C@@H](CCCCN)C(=O)N[C@@H](CCC(N)=O)C(=O)N[C@@H](CCCNC(=N)N)C(=O)N[C@@H](CCC(=O)O)C(=O)N[C@@H](CCC(N)=O)C(=O)N[C@@H](C)C(=O)N[C@@H](CCC(=O)O)C(=O)N[C@H](C(=O)N[C@@H](CC(=O)O)C(=O)N[C@@H](CCCCN)C(=O)N[C@@H](CCC(N)=O)C(=O)N[C@H](C(=O)N[C@@H](CC(C)C)C(=O)N[C@@H](C)C(=O)N[C@@H](CCC(N)=O)C(=O)N[C@H](C(N)=O)C(C)C)[C@@H](C)CC)[C@@H](C)O)[C@@H](C)CC)[C@@H](C)CC)C(C)C)C(C)C [compound 53] (Ac-IVLSLD[dV]PIK[αMeL]K([γGlu-C16 diacid])KILLEQEKQKKQREQAETDKQILAQV-NH2)	8050	5	> 250000
CC[C@H](C)[C@H](NC(C)=O)C(=O)N[C@H](C(=O)N[C@@H](CC(C)C)C(=O)N[C@@H](CO)C(=O)N[C@@H](CC(C)C)C(=O)N[C@@H](CC(=O)O)C(=O)N[C@@H](C(=O)N1CCC[C@H]1C(=O)N[C@H](C(=O)N[C@@H](CCCCN)C(=O)N[C@@H](CC(C)C)C(=O)N[C@@H](CCCCNC(=O)CC[C@H](NC(=O)CCCCCCCCCCCCCCC(=O)O)C(=O)O)C(=O)N[C@@H](CCCCN)C(=O)N[C@H](C(=O)N[C@@H](CC(C)C)C(=O)N[C@@H](CC(C)C)C(=O)N[C@@H](CCC(=O)O)C(=O)N[C@@H](CCC(N)=O)C(=O)N[C@@H](CCC(=O)O)C(=O)N[C@@H](CCCCN)C(=O)N[C@@H](CCC(N)=O)C(=O)N[C@@H](CCCCN)C(=O)N[C@@H](CCCCN)C(=O)N[C@@H](CCC(N)=O)C(=O)N[C@@H](CCCNC(=N)N)C(=O)N[C@@H](CCC(=O)O)C(=O)N[C@@H](CCC(N)=O)C(=O)N[C@@H](C)C(=O)N[C@@H](CCC(=O)O)C(=O)N[C@H](C(=O)N[C@@H](CC(N)=O)C(=O)N[C@@H](CCC(=O)O)C(=O)N[C@@H](CCC(N)=O)C(=O)N[C@H](C(=O)N[C@@H](CC(C)C)C(=O)N[C@@H](C)C(=O)N[C@@H](CCC(N)=O)C(=O)N[C@H](C(N)=O)C(C)C)[C@@H](C)CC)[C@@H](C)O)[C@@H](C)CC)[C@@H](C)CC)C(C)C)C(C)C [compound 56] (Ac-IVLSLD[dV]PIKLK([γGlu-C16 diacid])KILLEQEKQKKQREQAETNEQILAQV-NH2)	300	3	> 250000
